We go through one compound from patent EP4772497A1, “POLYMORPHS OF NITROGEN-CONTAINING HETEROCYCLIC COMPOUNDS, AND USES THEREOF” (BNH Research Co., Ltd., priority 2023, dated 2025).

The nature of series [1]: Compression simulation experiment (XRPD). The format is physicochemical. The note with it: compressed for 5 minutes at 2 MPa, 5 MPa, and 10 MPa. The method, then: About 5 mg of crystalline form C was compressed for 5 minutes at 2 MPa, 5 MPa, and 10 MPa using a hydraulic press. Potential changes in form and crystallinity were evaluated by XRPD.
The XRPD results of the compression simulation experiments are shown in Fig. 10, where CSE1, CSE2, and CSE3 represent experiment IDs for pressures of 2 MPa, 5 MPa, and 10 MPa, respectively.

Series [2] is described as follows: Wet granulation simulation experiment (XRPD). The series is classed as physicochemical. Conditions: ground, dried 10 minutes. The method, then:
Water or ethanol was added dropwise to about 10 mg of crystalline form C until it was sufficiently wetted. The wet sample was gently ground using a mortar and pestle. After the granulation, the sample was dried under ambient conditions for 10 minutes. Potential changes in form and crystallinity were evaluated by XRPD.
The XRPD results of the wet granulation simulation experiments are shown in Fig. 12, where GNSE1 and GNSE2 represent experiment IDs for water and ethanol, respectively.

Series [3] concerns APP/PS1 mice. Kind of series: fEPSP slope and LTP in hippocampal CA1 (Schaffer collateral) after dosing, ex vivo synaptic plasticity. The note with it: APP/PS1 mice 15 months old, form C 1 mg/kg orally once daily about 11 to 13 days, aducanumab 5 mg/kg i.v., four weekly injections. The procedure: Using APP/PS1 mice (15 months old, Taconic Biosciences), an animal model of Alzheimer's disease, the efficacy of crystalline form C and aducanumab (Creative Biolabs) was evaluated when administered alone or in combination, respectively. A control group and four experimental groups were prepared as follows (see Table 14).
For the control antibody, an isotype antibody was administered intravenously, and for the vehicle, 200 µL of a mixed solution of DMSO (10):PEG400 (44):saline (55) was administered orally. Five mice were used for each treatment group.
Aducanumab was administered at a dose of 5 mg/kg, and the control antibody, which is an inactivated form of aducanumab, was administered at a dose of 5 mg/kg. For the intravenous administration, a total of four injections were administered into the tail vein on the starting day of the experiment and at one-week intervals thereafter.
For oral administration, 1 mg/kg of the compound of the present disclosure (crystalline form C, BnH-015B) or a vehicle was administered orally once daily for about 11 to 13 days, starting about 2 weeks after the initiation of the experiment.

Series [4] is described as follows: Competitive equilibrium experiments for crystalline forms A and C (XRPD, DSC). The format is physicochemical. The note with it: forms A and C slurried in acetone, acetonitrile, ethyl acetate, isopropyl acetate, acetone/water (35:65) at 5°C, 25°C, 50°C for 1 week. The method, then: Competitive equilibrium experiments were performed in various solvent systems to determine the relative stability of crystalline forms A and C.
About 15 mg of crystalline form A and 15 mg of crystalline form C were added to 0.2 mL of a saturated solution of each of selected solvents (acetone, acetonitrile, ethyl acetate, isopropyl acetate, and acetone/water (v:v=35:65)) (Table 9). The obtained suspensions were stirred at 5°C, 25°C, and 50°C, respectively, for 1 week. The solid portion (wet cake) was isolated by centrifugal filtration and analyzed by XRPD and DSC, and the results are shown in Figs. 7a to 7f.

Series [5] deals with C57BL/6J mice. Put plainly: TC synaptic potency and GABA/AMPA ratio in the barrel cortex after oral administration. The format is in vivo. Conditions: 8-week-old C57BL/6J mice, 1 mg/kg orally, barrel cortex (layer 4). The method, then:
Following oral administration of crystalline form C, the efficacy of the compound was evaluated by measuring the potency and the GABA/AMPA ratio in the barrel cortex.
Crystalline form C was orally administered at a dose of 1 mg/kg to 8-week-old C57BL/6J mice. For the control group, 200 µL of a mixed solution of DMSO (10):PEG400 (44):saline (55) was orally administered as a vehicle. Experiments were performed on five mice each for the control (vehicle) group and the compound-treated group.

The nature of series [6]: Bulk stability of crystalline form C under stress conditions (HPLC, XRPD, color). Conditions: for Color / Purity (HPLC) Initial purity:99.9%: 1 week. The format is physicochemical. The procedure:
Crystalline form C was placed in an open container at 25°C/92.5% RH, in an open container at 40°C/75% RH, and in a closed container at 60°C for 1 week, respectively. After exposure to the stress conditions, the samples were characterized by XRPD and HPLC, and examined for color changes.
Reference is made to Experimental Method 6 for the HPLC conditions.

Series [7] concerns OPN. Put plainly: Mouse proteome profiling array analysis of somatosensory cortex homogenates. The format is in vivo. The note with it: APP/PS1 mice, 1 mg/kg orally for 14 days, cerebral cortex, vs vehicle-treated control group. The procedure: (§1) To evaluate the efficacy of crystalline form C of the present disclosure in inhibiting amyloid-beta protein accumulation, mouse proteomic profiling array analysis and Bielschowsky silver staining were performed. 15-week-old APP/PS1 mice were used in the experiment, and crystalline form C of the present disclosure (1 mg/kg of BnH-015B) or a vehicle was administered orally.
(§2) Relative levels of mouse cytokines, chemokines, and growth factors were determined using a membrane-based antibody array kit (Proteome Profiler Mouse XL Cytokine Array Kit, ARY028 R&D Systems, Inc., Minneapolis, USA) which features 111 capture antibodies coated in duplicate on a nitrocellulose membrane. Homogenates of the somatosensory cortex of APP/PS1 mice were prepared and tested according to the manufacturer's instructions. The array was detected using an X-ray film (Super RX, Fujifilm, Tokyo, Japan), and the film was read using an Epson scanner (L655 series, Epson, Suwa, Japan), followed by image analysis using ImageJ with the Protein Array Analyzer Macro (National Institutes of Health, Bethesda, MD, USA). […]
(§3) Statistical analysis was performed using GraphPad Prism 9.5.0 software (San Diego, CA, USA). […] All data are expressed as mean ± SEM.

The subject of series [8] is IL-33. The description is as above. The format is in vivo. The note with it: APP/PS1 mice, 1 mg/kg orally for 14 days, cerebral cortex, vs vehicle-treated control group. The method, then:
as §1, §2, §3

[9] abbreviates: BS1: Solid state, 25°C/92.5% RH, open container.
Setting [10] is: BS2: Solid state, 40°C/75% RH, open container.
The mark [11] stands for this setting: BS3: Solid state, 60°C, closed container.

Take `C[C@@H]1CC[C@H](C(=O)O)CN1C(=O)Cc1ccc(F)cc1Cl` [Crystalline form C, (3S,6R)-1-(2-(2-chloro-4-fluorophenyl)acetyl)-6-methylpiperidine-3-carboxylic acid]: the “change in form and crystallinity on compression” value in series [1] is “without any change in form or apparent decrease in crystallinity”. Also, the “change in form and crystallinity on granulation with ethanol” value in series [2] (wetted with ethanol) is recorded as “no change in form, but its crystallinity decreased significantly”. Moreover, the “change in form and crystallinity on granulation with water” value in series [2] (wetted with water) is given as “without any change in form or apparent decrease in crystallinity”. Besides, the “long-term potentiation (LTP) of the fEPSP, excitatory SC pathway” value in series [3] (hippocampus CA1) is recorded as “significantly increased”. For the same compound, in series [3] (hippocampus CA1, 4 weeks), the “slope of the field excitatory postsynaptic potential (fEPSP), synaptic efficacy” value is “significantly increased”. Moreover, the “relative stability of crystalline forms A and C” value in series [4] was “most thermodynamically stable crystalline form below 50 °C”. In series [5], the TC synaptic potency result is listed as “increase TC synaptic potency” and the “balance of excitation/inhibition (GABA/AMPA ratio)” value is “maintaining the balance of excitation/inhibition”. Besides, in series [6] (setting [9]), the Color entry is recorded as “No color change” and the “Purity (HPLC) Initial purity:99.9%” value worked out at 99.9%. Besides, in series [6] (setting [10]), the Color entry is “No color change” and the “Purity (HPLC) Initial purity:99.9%” value is recorded as 99.9%. In series [6] (setting [11]), the Color result is “No color change” and the “Purity (HPLC) Initial purity:99.9%” value is recorded as 99.9%. Further, the bulk stability entry in series [6] (from HPLC and XRPD results after 1 week stress) was “high bulk stability both physically and chemically”. The OPN expression result in series [7] is “suppressed”. Moreover, in series [8], the “expression level of IL-33” value was “significantly increased”.
